Residue numbers refer to the chain shown, from its start. Entries after “also recorded” stand apart in the source; their conditions may differ.

Results on three compounds are retold here after article PMC9687798, “Atypical Substrates of the Organic Cation Transporter 1” (Biomolecules, 2022).

In data set [1] the target is T1, human OCT1*1 (wild-type) (Homo sapiens, UniProt O15245).
T1 sequence (O15245 1-554): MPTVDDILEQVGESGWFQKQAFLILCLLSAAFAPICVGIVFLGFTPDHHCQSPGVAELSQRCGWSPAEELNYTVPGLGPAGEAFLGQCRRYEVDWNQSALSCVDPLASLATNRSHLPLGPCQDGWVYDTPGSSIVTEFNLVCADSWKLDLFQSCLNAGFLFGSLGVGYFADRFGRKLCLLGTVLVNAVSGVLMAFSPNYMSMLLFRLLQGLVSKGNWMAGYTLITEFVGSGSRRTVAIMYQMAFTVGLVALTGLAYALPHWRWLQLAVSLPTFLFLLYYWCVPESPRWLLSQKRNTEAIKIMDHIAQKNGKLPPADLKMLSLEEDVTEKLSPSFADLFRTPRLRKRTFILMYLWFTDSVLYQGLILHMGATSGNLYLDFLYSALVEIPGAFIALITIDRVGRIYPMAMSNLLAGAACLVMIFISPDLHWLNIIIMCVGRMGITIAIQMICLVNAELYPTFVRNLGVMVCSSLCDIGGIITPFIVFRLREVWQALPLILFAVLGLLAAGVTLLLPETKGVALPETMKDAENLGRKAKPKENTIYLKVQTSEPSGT
The experiment in a line: Cellular uptake ratio, OCT1-overexpressing HEK293 cells vs empty vector. It is filed as cell-based. To be noted: based on ratio uptake data at 1 µM. The protocol:
(§1) The wild-type cell lines of OCT1 and OCT2, as well as the variant cell lines OCT1*2 and *3, were generated using the Flp-In system (Thermo Fisher Scientific, Darmstadt, Germany) as described in previous publications. The cell line overexpressing OCT3 was a kind gift from Dr. Koepsell and Dr. Gorbulev (University of Würzburg, Germany). Cells transfected with the empty pcDNA5/FRT vector were used for the transport experiments as a control cell line. All cells were cultured approximately up to passage 30.
(§2) Forty-eight hours before the transport experiments, 600,000 cells were plated on 12-well plates pre-coated with poly-D-lysine and incubated at 37 °C with 5% CO2. The prepared 12-well plate with cells was positioned on a heating plate pre-warmed to 37 °C. After removing the medium, the cells were washed with 37 °C HBSS+ (10 mM HEPES in Hank’s balanced salt solution, pH 7.4). Then, one pre-defined concentration of a substrate was added to each well. The incubation period was stopped by adding 2 mL of 4 °C HBSS+ and removing the cells from the heating plate. The cells were washed twice with 4 °C HBSS+. For cell lysis, the cells were incubated for 15 min with 500 µL of 80% acetonitrile (LGC Standards, Wesel, Germany), which contained a respective internal standard (Table 1).
(§3) For concentration-dependent transport, the cells were incubated with defined substrate concentrations (0.1, 1, 10, 30, 100, 300, 600, 1000 µM) for the respective pre-defined incubation times. […] The uptake by a transporter was normalised to the uptake by empty vector-transfected cells. […] The results of transport experiments were normalized to the total protein concentration per well. Total protein quantification was performed using a bicinchoninic acid assay with bovine serum albumin as standard.
(§4) The ratios of cellular uptake were calculated by dividing the total uptake of transporter-overexpressing cells by the total uptake into empty vector transfected cells. The concentration-dependent cellular net uptake was used for analysis of transport kinetics by subtracting for each substrate concentration the uptake of empty vector-transfected cells from the uptake of transporter-overexpressing cells. […] The intrinsic clearance Clint was expressed with the ratio of Vmax and KM.

The target of the next data set is T2, wild-type human OCT2 (Homo sapiens, UniProt O15244).
T2 sequence (O15244 1-555): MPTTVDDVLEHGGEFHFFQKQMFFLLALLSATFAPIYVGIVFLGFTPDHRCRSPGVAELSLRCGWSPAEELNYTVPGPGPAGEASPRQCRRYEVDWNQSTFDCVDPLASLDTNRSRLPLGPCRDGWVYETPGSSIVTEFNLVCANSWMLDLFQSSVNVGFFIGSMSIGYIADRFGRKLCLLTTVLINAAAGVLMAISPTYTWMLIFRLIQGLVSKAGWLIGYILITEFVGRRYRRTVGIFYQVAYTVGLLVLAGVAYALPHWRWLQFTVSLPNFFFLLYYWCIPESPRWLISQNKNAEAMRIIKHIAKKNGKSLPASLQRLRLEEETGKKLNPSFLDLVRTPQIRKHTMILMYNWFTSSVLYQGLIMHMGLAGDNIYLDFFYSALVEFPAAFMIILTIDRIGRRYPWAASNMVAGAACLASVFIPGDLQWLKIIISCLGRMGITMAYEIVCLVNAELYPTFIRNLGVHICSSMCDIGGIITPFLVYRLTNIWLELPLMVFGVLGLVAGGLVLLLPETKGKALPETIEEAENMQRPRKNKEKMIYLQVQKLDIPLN
The experiment in a line: Cellular uptake ratio, OCT2-overexpressing HEK293 cells vs empty vector. It is filed as cell-based. To be noted: based on ratio uptake data at 1 µM. The protocol: as §1, §2, §3, §4

A further data set has as its target T3, OCT3 (Homo sapiens, UniProt O75751).
T3 construct: expressed in transfected cells; host or cells: HEK293, stably transfected; gift from Dr. Koepsell and Dr. Gorbulev (University of Würzburg)
T3 sequence (O75751 1-556): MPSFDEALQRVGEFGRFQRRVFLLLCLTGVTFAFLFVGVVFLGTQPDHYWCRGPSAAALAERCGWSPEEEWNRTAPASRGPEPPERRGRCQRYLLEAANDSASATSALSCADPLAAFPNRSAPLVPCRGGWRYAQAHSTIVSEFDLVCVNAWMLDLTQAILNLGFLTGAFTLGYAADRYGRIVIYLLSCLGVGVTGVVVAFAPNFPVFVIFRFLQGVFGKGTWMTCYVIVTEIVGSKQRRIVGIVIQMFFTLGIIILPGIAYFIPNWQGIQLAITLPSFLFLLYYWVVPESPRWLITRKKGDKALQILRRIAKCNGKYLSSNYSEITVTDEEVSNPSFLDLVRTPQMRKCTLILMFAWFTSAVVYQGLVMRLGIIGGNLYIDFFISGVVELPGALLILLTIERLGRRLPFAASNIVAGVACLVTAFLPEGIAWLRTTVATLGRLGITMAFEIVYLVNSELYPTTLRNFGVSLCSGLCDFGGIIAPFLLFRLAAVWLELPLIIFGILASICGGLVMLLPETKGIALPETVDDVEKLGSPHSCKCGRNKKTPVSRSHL
The experiment in a line: Cellular uptake ratio, OCT3-overexpressing HEK293 cells vs empty vector. It is filed as cell-based. The following applies: based on ratio uptake data at 1 µM. The protocol:
as §1, §2, §3, §4

Data set [2] in a line: Concentration-dependent uptake into empty vector-transfected HEK293 cells. It is filed as cell-based, human. To be noted: human, empty vector (pcDNA5/FRT)-transfected HEK293 cells, pH 7.4; empty vector-transfected HEK cells; read-out: intrinsic clearance. The protocol: as §1, with “The transport experiments were performed using HEK293 cells that overexpress human OCT1*1 (wild-type), mutant human OCT1 D474N, variant human OCT1*2 (M420del) and OCT1*3 (R61C), wild-type human OCT2, and OCT3 after stable transfection. The wild-type” for “The wild-type”
as §2
(§5) For time-dependent transport, the cells were incubated with 1 µM of the substance for 15 to 240 s to determine the linear uptake range ≥ 15 s. For concentration-dependent transport, the cells were incubated with defined substrate concentrations (0.1, 1, 10, 30, 100, 300, 600, 1000 µM) for the respective pre-defined incubation times. […]; 100 µM) and pre-defined incubation times. The uptake by a transporter was normalised to the uptake by empty vector-transfected cells. […] The results of transport experiments were normalized to the total protein concentration per well. Total protein quantification was performed using a bicinchoninic acid assay with bovine serum albumin as standard.
(§6) The ratios of cellular uptake were calculated by dividing the total uptake of transporter-overexpressing cells by the total uptake into empty vector transfected cells. The concentration-dependent cellular net uptake was used for analysis of transport kinetics by subtracting for each substrate concentration the uptake of empty vector-transfected cells from the uptake of transporter-overexpressing cells. The transport kinetic parameters Vmax and KM were determined with non-linear regression by using the Michaelis–Menten equation for net uptake data and by using the Michaelis–Menten equation extended with a linear term for total uptake data (GraphPad Prism 5.01, GraphPad software, LA Jolla, CA, USA). The intrinsic clearance Clint was expressed with the ratio of Vmax and KM.

Data set [3] relates to empty vector-transfected HEK cells. The data set is described as above. To be noted: uptake into empty vector-transfected cells. It is filed as cell-based, human. The protocol:
as §1, with “The transport experiments were performed using HEK293 cells that overexpress human OCT1*1 (wild-type), mutant human OCT1 D474N, variant human OCT1*2 (M420del) and OCT1*3 (R61C), wild-type human OCT2, and OCT3 after stable transfection. The wild-type” for “The wild-type”
as §2, §5, §6

For data set [4], the target named is T1, human OCT1*1 (wild-type). The experiment in a line: Concentration-dependent uptake (transport kinetics) in HEK293 cells overexpressing OCT1 wild-type. To be noted: for Clint (±SEM): intrinsic clearance = ratio of Vmax and KM, OCT1 wild-type.
In the next data set the target is T4, OCT1*3 (R61C) (Homo sapiens, UniProt O15245, R61C).
T4 construct: expressed in transfected cells
T4 sequence (O15245 1-554 R61C): T1 sequence (O15245 1-554) with R61C
The data set can be described thus: Cellular uptake by HEK293 cells overexpressing OCT1*3. The class given is cell-based. The following applies: 1 µM substance. Here is the method:
as §1, with “The transport experiments were performed using HEK293 cells that overexpress human OCT1*1 (wild-type), mutant human OCT1 D474N, variant human OCT1*2 (M420del) and OCT1*3 (R61C), wild-type human OCT2, and OCT3 after stable transfection. The wild-type” for “The wild-type”
as §2, §5, §6

For another data set, the target named is T5, mutant human OCT1 D474N (Homo sapiens, UniProt O15245, D474N).
T5 construct: expressed in transfected cells
T5 sequence (O15245 1-554 D474N): T1 sequence (O15245 1-554) with D474N
The experiment in a line: Cellular uptake by HEK293 cells overexpressing variant OCT1 D474N. To be noted: p < 0.01. It is filed as cell-based.

On to `C[C@](N)(Cc1ccc(O)c(O)c1)C(=O)O` [Methyldopa, L-(–)-α-methyldopa], for which, on human OCT1*1 (wild-type) [1], the OCT1 transport category entry was “+/− (poor transport with a Clint < 5 or ratio between 1–2 with statistical significance (p < 0.05))”. Besides, the OCT2 transport category at wild-type human OCT2 is 0 (no transport by OCT1, OCT2, and OCT3 occurred (i.e., no kinetic parameters or uptake ratio <2 without significance)). Besides, the OCT3 transport category on OCT3 was 0 (no transport by OCT1, OCT2, and OCT3 occurred (i.e., no kinetic parameters or uptake ratio <2 without significance)). The microsomal CLint in data set [2] amounted to 15.1 µL/min/mg. Besides, in data set [3], the Km worked out at 32.2 µM and the Vmax was found to be 488 pmol/mg protein/min. In addition, the “Clint (±SEM)” value at human OCT1*1 (wild-type) [4] was 5.94 ± 4.63 µL/mg Protein/min. Further, the “Clint (±SEM)” value at human OCT1*1 (wild-type) [4] (listed as methyldopa) is reported as 5.94 µL/mg Protein/min.

For `Nc1ccn([C@@H]2CS[C@H](CO)O2)c(=O)n1` [Lamivudine, lamivudine], the OCT3 transport category on OCT3 was 0 (no transport by OCT1, OCT2, and OCT3 occurred (i.e., no kinetic parameters or uptake ratio <2 without significance)). The “uptake by OCT1*3 in comparison to OCT1*1” value on OCT1*3 (R61C) is recorded as “reduction in uptake”.

As for `C[N+](C)(C)[C@@H](Cc1c[nH]c2ccccc12)C(=O)[O-]` [Hypaphorine, hypaphorine], the OCT1 transport category on human OCT1*1 (wild-type) [1] is 0 (no transport by OCT1, OCT2, and OCT3 occurred (i.e., no kinetic parameters or uptake ratio <2 without significance)). Also, the OCT2 transport category at wild-type human OCT2 was 0 (no transport by OCT1, OCT2, and OCT3 occurred (i.e., no kinetic parameters or uptake ratio <2 without significance)). Moreover, at OCT3, the OCT3 transport category is 0 (no transport by OCT1, OCT2, and OCT3 occurred (i.e., no kinetic parameters or uptake ratio <2 without significance)). Further, the “enhancement of uptake by OCT1 D474N compared to wild-type” value at mutant human OCT1 D474N is listed as “two-fold enhancement; also recorded: significantly increased uptake by the variant OCT1 D474N”. In addition, on human OCT1*1 (wild-type) [4] (good >5, poor 1–5, non-substrate <1 µL/mg protein/min or uptake not above empty vector), the “OCT1 substrate classification from concentration-dependent uptake” value is on record as “linear increase in total uptake of both cell lines”.

A word on the Km: it is the concentration of substrate that gives half-maximal velocity.
